Measured values reported in patent publication US10323021B2, “Triazoles as NR2B receptor inhibitors” (Janssen Pharmaceuticals, Inc., priority 2014, dated 2019).

Legend:
[1] = target: hERG receptor (Homo sapiens (Human), UniProt Q12809); assay: HERGBD: inhibition of specific [3H]-Dofetilide binding to the hERG receptor; details: HEK hERG membranes, Hill-plot 2-parameter model
[2] = tested on: mice (forced swim test, model of depression); assay: Forced swim test in mice; format: in vivo, mouse; details: p.o., 30 minutes before the test, male NMRI mice
Experimental: The compounds of the invention show significant antidepressive effects in the forced swim test in mice, an animal model of depression at doses of 100 mg/kg or below.
The method, which detects antidepressant activity, follows that described by Porsolt et al (Arch. Int. Pharmacodyn., 229, 327-336, 1977), which is incorporated by reference herein in its entirety.
Mice forced to swim in a situation from which they cannot escape rapidly become immobile. Antidepressants decrease the duration of immobility.
Male NMRI mice (Janvier, France), weighing 20-30 g, were individually placed in a cylinder (height=24 cm; diameter=13 cm) containing 10 cm water (22° C.) from which they cannot escape.
The mice were placed in the water for 6 minutes and the duration of immobility during the last 4 minutes was measured. The latency to the first bout of immobility was also recorded starting from the beginning of the test. 10 mice were studied per group. The test substance was administered p.o. 30 minutes before the test and compared with vehicle control group. The test was performed blind.

[3] = target: T1, rat NR1/NR2B receptor (Rattus norvegicus (Rat), UniProt P35439+Q00960); assay: RRNR2BB: inhibition of specific [3H]-Ifenprodil binding to the rat NR1/NR2B receptor; details: rat brain membranes, Hill-plot 2-parameter model
T1 sequence (Q00960 27-1482, other chains not shown): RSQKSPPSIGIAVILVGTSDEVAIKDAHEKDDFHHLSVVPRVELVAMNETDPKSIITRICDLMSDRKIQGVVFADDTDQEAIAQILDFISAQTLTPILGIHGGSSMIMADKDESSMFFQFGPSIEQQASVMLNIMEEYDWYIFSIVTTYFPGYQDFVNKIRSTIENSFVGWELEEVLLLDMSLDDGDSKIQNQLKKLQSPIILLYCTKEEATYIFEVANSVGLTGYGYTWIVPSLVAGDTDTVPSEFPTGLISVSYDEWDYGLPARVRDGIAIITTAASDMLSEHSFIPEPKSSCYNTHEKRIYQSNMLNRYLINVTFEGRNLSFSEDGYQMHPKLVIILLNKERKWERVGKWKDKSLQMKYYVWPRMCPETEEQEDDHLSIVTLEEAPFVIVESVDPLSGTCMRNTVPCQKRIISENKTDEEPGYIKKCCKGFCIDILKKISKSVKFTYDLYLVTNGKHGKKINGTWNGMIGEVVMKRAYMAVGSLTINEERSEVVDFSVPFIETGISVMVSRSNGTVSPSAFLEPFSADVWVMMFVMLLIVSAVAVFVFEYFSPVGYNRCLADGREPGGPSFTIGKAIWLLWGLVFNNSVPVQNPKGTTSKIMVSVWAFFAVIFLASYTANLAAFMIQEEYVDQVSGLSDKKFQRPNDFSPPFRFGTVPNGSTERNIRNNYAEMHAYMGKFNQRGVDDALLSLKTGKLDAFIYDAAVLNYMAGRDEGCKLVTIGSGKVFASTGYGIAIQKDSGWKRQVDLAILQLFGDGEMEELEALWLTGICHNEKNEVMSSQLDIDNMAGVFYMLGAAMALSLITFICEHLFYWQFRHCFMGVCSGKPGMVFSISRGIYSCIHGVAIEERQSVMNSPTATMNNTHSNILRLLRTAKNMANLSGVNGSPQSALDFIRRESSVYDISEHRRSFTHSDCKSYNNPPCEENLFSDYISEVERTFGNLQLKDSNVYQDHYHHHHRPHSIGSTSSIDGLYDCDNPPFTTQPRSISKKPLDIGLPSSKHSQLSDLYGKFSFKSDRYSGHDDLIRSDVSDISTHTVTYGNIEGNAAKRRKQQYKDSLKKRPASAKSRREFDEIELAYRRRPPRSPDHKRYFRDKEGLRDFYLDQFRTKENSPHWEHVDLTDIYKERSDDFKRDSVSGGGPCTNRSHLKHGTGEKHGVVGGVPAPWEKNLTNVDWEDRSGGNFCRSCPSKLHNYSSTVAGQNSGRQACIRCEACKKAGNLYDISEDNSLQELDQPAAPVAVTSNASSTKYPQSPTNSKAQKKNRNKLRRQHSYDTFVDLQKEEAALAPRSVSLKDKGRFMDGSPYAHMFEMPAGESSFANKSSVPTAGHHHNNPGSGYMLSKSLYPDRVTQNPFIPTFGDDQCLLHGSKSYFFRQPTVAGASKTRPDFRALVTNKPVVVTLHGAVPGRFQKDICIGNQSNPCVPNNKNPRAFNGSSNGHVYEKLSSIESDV

[4] = target: T1, rat NR1/NR2B receptor; assay: NR2B binding assay: inhibition of specific [3H]-Ifenprodil binding to the rat NR1/NR2B receptor; details: for IC50: rat brain membranes, [3H]-Ifenprodil, Hill-plot 2-parameter model; for inhibition at 1 µM: 1 μM test compound, read-out: NR2B binding assay % INH @ 1 μM; for inhibition at 10 µM: 10 μM test compound, read-out: NR2B binding assay % INH @ 10 μM
Experimental: Inhibition of Specific Binding to the Rat NR1/NR2B Receptor
Male Wistar rats (180 to 200 g) were killed by suffocation in a CO2 chamber for two minutes. Whole brains without cerebellum were removed and dissected on ice, placed into closed vials and stored at −70° C.
Membrane fractions were prepared and tested using standard techniques. At the time of the assay, 1 g of the brains was placed into 25 ml of 50 mM Tris/10 mM EDTA buffer, pH 7.1, (25 vol. per g of original tissue) and homogenized for 30 sec at 20000 rpm with an Ultraturrax T25 (Jahnke & Kunkel, IKA-Labortechnik, Staufen, Germany). The homogenate was centrifuged at 4° C. for 10 min at 48000 g (OPTIMA L-70, Beckman, Palo Alto, Calif. 94304, USA).
The supernatant was discarded and the pellet was homogenized on ice for 30 sec at 20000 rpm with an Ultraturrax and again centrifuged at 48000 g for 30 minutes at 4° C. The resulted pellet was resuspended in 25 ml of 50 mM Tris/10 mM EDTA buffer, homogenized for 30 sec with an Ultraturrax, aliquoted, frozen at −70° C. and stored until use.
After thawing on the day of the assay, a 5 ml membrane aliquot was centrifuged at 48000 g for 30 min at 4° C. The pellet was resuspended in 5 ml of 5 mM Tris/1 mM EDTA buffer, pH 7.4, homogenized for 30 sec at 20000 rpm with an Ultraturrax and centrifuged at 48000 g for 30 min at 4° C. This was repeated twice. The final pellet was homogenized in 5 ml of 5 mM Tris/1 mM EDTA buffer at 4° C. with an Ultraturrax and used for the Ifenprodil-binding assay as described in the following.
Nonspecific binding was estimated in the presence of […] CP101.606. The samples were incubated for 60 min. at 4° C.
The incubation was terminated by filtration of the membrane preparations using Filtermat B (Pharmacia, Uppsala Sweden) and a Micro Cell Harvester (Skatron, Lier, Norway). The Filtermat B had been presoaked with 1% polyethylene imine and carefully washed with 50 mM Tris/HCl-buffer pH 7.7 after the filtration to separate free and bound radioactivity.
The optimal amount of membrane preparation in the assay had been determined and optimized for each membrane preparation separately before the test.
For pipetting of the incubation mixture we routinely used the robot Biomek2000 (Fa. Beckman).
For determination of IC50 values the Hill-plot, 2-parameter-model was used.

hERG receptor, sequence (Q12809 whole entry): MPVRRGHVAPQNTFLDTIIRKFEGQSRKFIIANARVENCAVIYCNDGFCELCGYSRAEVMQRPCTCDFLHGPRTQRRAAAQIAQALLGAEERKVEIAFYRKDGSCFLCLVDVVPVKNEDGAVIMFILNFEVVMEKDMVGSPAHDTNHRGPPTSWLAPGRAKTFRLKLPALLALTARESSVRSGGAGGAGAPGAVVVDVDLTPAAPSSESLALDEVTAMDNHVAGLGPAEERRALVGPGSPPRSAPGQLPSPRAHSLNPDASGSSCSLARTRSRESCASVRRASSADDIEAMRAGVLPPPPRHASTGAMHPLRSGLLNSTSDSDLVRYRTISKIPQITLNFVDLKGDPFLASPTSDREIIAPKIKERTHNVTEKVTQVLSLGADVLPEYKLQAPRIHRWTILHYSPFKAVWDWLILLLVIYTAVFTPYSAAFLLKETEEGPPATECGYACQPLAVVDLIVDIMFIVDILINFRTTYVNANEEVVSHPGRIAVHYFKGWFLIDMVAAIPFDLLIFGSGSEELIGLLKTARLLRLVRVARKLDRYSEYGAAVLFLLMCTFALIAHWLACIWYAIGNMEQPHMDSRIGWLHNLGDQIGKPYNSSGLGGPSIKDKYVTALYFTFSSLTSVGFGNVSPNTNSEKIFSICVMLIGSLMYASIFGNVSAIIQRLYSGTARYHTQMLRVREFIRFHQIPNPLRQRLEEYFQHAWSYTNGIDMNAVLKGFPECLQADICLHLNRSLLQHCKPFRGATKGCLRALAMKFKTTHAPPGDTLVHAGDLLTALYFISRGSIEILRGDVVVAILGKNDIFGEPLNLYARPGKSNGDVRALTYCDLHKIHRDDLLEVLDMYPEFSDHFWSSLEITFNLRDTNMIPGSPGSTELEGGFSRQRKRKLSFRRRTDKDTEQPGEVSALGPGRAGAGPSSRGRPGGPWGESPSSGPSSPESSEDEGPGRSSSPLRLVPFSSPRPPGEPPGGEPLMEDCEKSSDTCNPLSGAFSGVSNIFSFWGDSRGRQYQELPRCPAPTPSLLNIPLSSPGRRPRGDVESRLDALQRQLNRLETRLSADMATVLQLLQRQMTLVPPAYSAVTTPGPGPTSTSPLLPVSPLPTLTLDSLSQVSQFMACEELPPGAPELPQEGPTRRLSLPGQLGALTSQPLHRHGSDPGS

SMILES | inhibition at 1 µM [4] | inhibition at 10 µM [4] | other results
Cc1nccn1Cc1cn(-c2ccc(F)c(C(C)(F)F)c2)nn1 [Example 105, 1-[3-(1,1-Difluoro-ethyl)-4-fluoro-phenyl]-4-(2-methyl-imidazol-1-ylmethyl)-1H-[1,2,3]triazole] |  |  | IC50 [1]: 23100 nM
OCCc1nccn1Cc1cn(-c2ccc(F)c(OC(F)F)c2)nn1 [Example 101, 1-(3-Difluoromethoxy-4-fluoro-phenyl)-4-[2-(2-hydroxy-ethyl)-imidazol-1-ylmethyl]-1H-[1,2,3]triazole] |  |  | Minimum effective dose [2]: >30 mg/kg
FCCc1nccn1Cc1cn(-c2cc(F)cc(C(F)F)c2)nn1 [Example 104, 1-(3-Difluoromethyl-5-fluoro-phenyl)-4-[2-(2-fluoro-ethyl)-imidazol-1-ylmethyl]-1H-[1,2,3]triazole] |  |  | IC50 [3]: 186 nM; IC50 [1]: 30600 nM; IC50 [4]: 186 nM
Cc1nc(C)n(Cc2cn(-c3ccc(Cl)cc3)nn2)n1 [Example 1, 1-(4-Chloro-phenyl)-4-(3,5-dimethyl-[1,2,4]triazol-1-ylmethyl)-1H-[1,2,3]triazole] | 12.4% | 31.5% | 
Clc1ccc(-n2cc(Cn3ncnc3C3CCC3)nn2)cc1 [Example 11, 1-(4-Chloro-phenyl)-4-(5-cyclobutyl-[1,2,4]triazol-1-ylmethyl)-1H-[1,2,3]triazole] | 8.7% | 41.5% | 
OCCc1nccn1Cc1cn(-c2ccc(S(F)(F)(F)(F)F)cc2)nn1 [Example 118, 2-(1-((1-(4-(pentafluoro-l6-sulfanyl)phenyl)-1H-1,2,3-triazol-4-yl)methyl)-1H-imidazol-2-yl)ethan-1-ol] |  |  | IC50 [3]: 263 nM; IC50 [4]: 263 nM
Fc1ccc(-n2cc(Cn3ccnc3C3CC3)nn2)cc1C(F)F [Example 82, 4-(2-Cyclopropyl-imidazol-1-ylmethyl)-1-(3-difluoromethyl-4-fluoro-phenyl)-1H-[1,2,3]triazole] |  |  | Minimum effective dose [2]: 60 mg/kg
FC(F)(F)c1ncn(Cc2cn(-c3ccc(Cl)cc3)nn2)n1 [Example 17, 1-(4-Chloro-phenyl)-4-(3-trifluoromethyl-[1,2,4]triazol-1-ylmethyl)-1H-[1,2,3]triazole] | 19.9% | 12.5% | 
Clc1ccc(-n2cc(Cn3ncnc3C3CC3)nn2)cc1 [Example 16, 1-(4-Chloro-phenyl)-4-(5-cyclopropyl-[1,2,4]triazol-1-ylmethyl)-1H-[1,2,3]triazole] | 3.6% | 32.6% | 
Clc1ccc(-n2cc(Cn3cnc(C4CCC4)n3)nn2)cc1 [Example 12, 1-(4-Chloro-phenyl)-4-(3-cyclobutyl-[1,2,4]triazol-1-ylmethyl)-1H-[1,2,3]triazole] | -0.66% | 11% | 
Clc1ccc(-n2cc(Cn3ncnc3C3CCCC3)nn2)cc1 [Example 14, 1-(4-Chloro-phenyl)-4-(5-cyclopentyl-[1,2,4]triazol-1-ylmethyl)-1H-[1,2,3]triazole] |  | 49.6% | 

Continued, in another order:

inhibition at 1 µM [4] | inhibition at 10 µM [4] | SMILES | other results
-4.9% |  | Cc1ccc(C(=O)c2nccn2Cc2cn(-c3ccc(Cl)cc3)nn2)cc1 [Example 116, [1-[[1-(4-chlorophenyl)triazol-4-yl]methyl]imidazol-2-yl]-(p-tolyl)methanone] | 
3.7% | 2.2% | Cc1nncn1Cc1cn(-c2ccc(Cl)cc2)nn1 [Example 31, 1-(4-Chloro-phenyl)-4-(3-methyl-[1,2,4]triazol-4-ylmethyl)-1H-[1,2,3]triazole] | 
27% | 15.3% | CC(C)(C)c1ncn(Cc2cn(-c3ccc(Cl)cc3)nn2)n1 [Example 20, 4-(3-tert-Butyl-[1,2,4]triazol-1-ylmethyl)-1-(4-chloro-phenyl)-1H-[1,2,3]triazole] | 
28.7% | 51.4% | Clc1ccc(-n2cc(Cn3ccnc3Cl)nn2)cc1 [Example 26, 4-(2-Chloro-imidazol-1-ylmethyl)-1-(4-chloro-phenyl)-1H-[1,2,3]triazole] | 
9.3% | 7.4% | Cc1nc(C)n(Cc2cn(-c3ccccc3)nn2)n1 [Example 46, 4-(3,5-Dimethyl-[1,2,4]triazol-1-ylmethyl)-1-phenyl-1H-[1,2,3]triazole] | 
12.7% | 53.2% | CC(C)(C)c1nccn1Cc1cn(-c2ccc(Cl)cc2)nn1 [Example 30, 4-(2-tert-Butyl-imidazol-1-ylmethyl)-1-(4-chloro-phenyl)-1H-[1,2,3]triazole] | 
